This note sets out measurements from ChEMBL document CHEMBL1133583, “Design of cancer-specific antitumor agents based on aziridinylcyclopent[b]indoloquinones” (J Med Chem, 2000).

Common to all, as to format: functional
One assay deals with Breast carcinoma cell. Description: In vitro cytotoxicity against breast cancer cells. The settings on record: Homo sapiens.
Another assay relates to CNS carcinoma cell. Description: In vitro cytotoxicity against CNS cancer cells. The settings on record: Homo sapiens.
A further assay deals with Colon carcinoma cell. Description: In vitro cytotoxicity against colon cancer cells. The settings on record: Homo sapiens.
Assay [1] is described as follows: In vitro cytotoxicity against Leukemia cancer cells. The settings on record: Homo sapiens, Cancer cell lines.
A further assay relates to Melanoma cell. Description: In vitro cytotoxicity against melanoma cancer cells. The settings on record: Homo sapiens.
The species named for a further assay is Homo sapiens. Description: In vitro cytotoxicity against non-small-cell lung cancer cells. The settings on record: Cancer cell lines, read-out: Log LC50 (the source's name) (converted).
For the next assay, the system named is Ovarian carcinoma cell. Kind of assay: In vitro cytotoxicity against ovarian cancer cells. The settings on record: Homo sapiens.
For a further assay, the system named is Prostatic carcinoma cell. Kind of assay: In vitro cytotoxicity against prostate cancer cells. The settings on record: Homo sapiens, read-out: Log LC50 (the source's name) (converted).
For another assay, the system named is Renal cancer cell line. Description: (§1) In vitro cytotoxicity against renal cancer cells. The settings on record: Homo sapiens, read-out: Log LC50 (the source's name) (converted).
Assay [2] is described as follows: as §1. The settings on record: Homo sapiens, Cancer cell lines; read-out: Log LC50 (the source's name) (converted).

Each structure is given as a SMILES string.

As for `CC(=O)OC1CCc2c3c(n(C(C)=O)c21)C(=O)C(N1CC1)=C(C)C3=O` (stereo not drawn), in the assay with Breast carcinoma cell, the LC50 (concentration killing 50% of cells) was 31.6 µM. Moreover, the LC50 in the assay with CNS carcinoma cell was 17.8 µM; with Melanoma cell it was 8.71 µM; in the assay on Ovarian carcinoma cell, 66.1 µM. The molecule further gave an LC50 (50% lethal concentration) in the assay with Colon carcinoma cell of 17 µM. Besides, in assay [1], the LC50 (lethal concentration 50%) is above 100 µM. Moreover, the results for the CC50 in the assay listed under Homo sapiens, in the assay on Prostatic carcinoma cell and in the assay with Renal cancer cell line were 38 µM, 19.5 µM and 16.6 µM, respectively.

In the case of `COC1CCc2c1[nH]c1c2C(=O)C(C)=C(N2CC2)C1=O` (stereo not drawn), in the assay with Breast carcinoma cell, the LC50 (concentration killing 50% of cells) is 46.8 µM. Also, the LC50 with CNS carcinoma cell is 67.6 µM; in the assay with Melanoma cell, 12 µM; in the assay with Ovarian carcinoma cell, above 100 µM. In addition, the LC50 (50% lethal concentration) with Colon carcinoma cell was 47.9 µM. The molecule further showed an LC50 (lethal concentration 50%) in assay [1] of 87.1 µM. The CC50 in the assay filed under Homo sapiens is 63.1 µM; in the assay with Prostatic carcinoma cell, 34.7 µM; in [2], 26.3 µM.

Turning to `CC(=O)OC1CCc2c1[nH]c1c2C(=O)C(C)=C(N2CC2)C1=O` (stereo not drawn), the LC50 (concentration killing 50% of cells) with Breast carcinoma cell is 29.5 µM. The LC50 in the assay with CNS carcinoma cell is 20 µM; in the assay on Melanoma cell, 10.2 µM; in the assay with Ovarian carcinoma cell, 39.8 µM. In the assay on Colon carcinoma cell, the LC50 (50% lethal concentration) is 14.1 µM. The molecule also gave an LC50 (lethal concentration 50%) in [1] of 50.1 µM. The CC50 in the assay filed under Homo sapiens was 22.4 µM; with Prostatic carcinoma cell it was 23.4 µM; in the assay on Renal cancer cell line, 19.1 µM.

On to `CC1=C(N2CC2)C(=O)c2c([nH]c(C)c2C)C1=O`, for which the CC50 is 51.3 µM in the assay filed under Homo sapiens, above 100 µM with Prostatic carcinoma cell and above 100 µM in [2].

`CC(=O)OCc1[nH]c2c(c1C)C(=O)C(N1CC1)=C(C)C2=O` showed an LC50 (concentration killing 50% of cells) in the assay with Breast carcinoma cell of 26.9 µM. The median lethal concentration (LC50) with CNS carcinoma cell is 14.8 µM; with Melanoma cell, 2.29 µM; with Ovarian carcinoma cell, 34.7 µM. The molecule further showed an LC50 (50% lethal concentration) in the assay with Colon carcinoma cell of 8.32 µM. The same molecule had an LC50 (lethal concentration 50%) in assay [1] above 100 µM. The CC50 in the assay filed under Homo sapiens was 33.1 µM; in the assay with Prostatic carcinoma cell, 9.77 µM; in the assay with Renal cancer cell line, 28.8 µM.

The molecule `CC1=C(N2CC2)C(=O)c2[nH]c(C)c(C)c2C1=O` gave an LC50 (concentration killing 50% of cells) in the assay with Breast carcinoma cell above 100 µM. The LC50 in the assay on CNS carcinoma cell was above 100 µM; with Melanoma cell it was 70.8 µM; in the assay with Ovarian carcinoma cell it was above 100 µM. Besides, the LC50 (50% lethal concentration) in the assay with Colon carcinoma cell was 89.1 µM. The molecule further showed an LC50 (lethal concentration 50%) in [1] above 100 µM. Further, the CC50 in the assay listed under Homo sapiens is 50.1 µM; in the assay on Prostatic carcinoma cell, above 100 µM; in the assay on Renal cancer cell line, above 100 µM.

As for `CC1=C(N2CC2)C(=O)c2[nH]c(CO)c(C)c2C1=O`, the LC50 (concentration killing 50% of cells) in the assay on Breast carcinoma cell was 89.1 µM. Besides, the 50% lethal concentration (LC50) in the assay on CNS carcinoma cell was 89.1 µM; in the assay with Melanoma cell, 39.8 µM; in the assay with Ovarian carcinoma cell, above 100 µM. Further, in the assay on Colon carcinoma cell, the LC50 (50% lethal concentration) was 63.1 µM. In [1], the LC50 (lethal concentration 50%) is above 100 µM. Also, the figures for the CC50 (in the assay listed under Homo sapiens; with Prostatic carcinoma cell; in assay [2]) were 79.4 µM, 63.1 µM and 58.9 µM, respectively.

Consider `CC1=C(N2CC2)C(=O)c2[nH]c3c(c2C1=O)CCC3=O`, for which, in the assay on Breast carcinoma cell, the LC50 (concentration killing 50% of cells) was 12.6 µM. Besides, the LC50 with CNS carcinoma cell was 7.41 µM; in the assay on Melanoma cell, 1.02 µM; in the assay on Ovarian carcinoma cell, 13.8 µM. The LC50 (50% lethal concentration) with Colon carcinoma cell is 3.63 µM. In assay [1], this molecule had an LC50 (lethal concentration 50%) above 100 µM. Besides, the CC50 was 4.27 µM in the assay listed under Homo sapiens, 15.8 µM with Prostatic carcinoma cell and 4.57 µM in the assay with Renal cancer cell line.

In the assay on Breast carcinoma cell, `CC(=O)OCc1[nH]c2c(c1C)C(=O)C(C)=C(N1CC1)C2=O` had an LC50 (concentration killing 50% of cells) above 100 µM. The figures for the LC50 in the assay on CNS carcinoma cell, in the assay on Melanoma cell and in the assay on Ovarian carcinoma cell were above 100 µM, 70.8 µM and above 100 µM, respectively. In the assay on Colon carcinoma cell, this molecule had an LC50 (50% lethal concentration) above 100 µM. This molecule also showed an LC50 (lethal concentration 50%) in assay [1] above 100 µM. Besides, the figures for the CC50 (in the assay listed under Homo sapiens; with Prostatic carcinoma cell; in [2]) were 79.4 µM, above 100 µM and 72.4 µM, respectively.

`CC1=C(N2CC2)C(=O)c2[nH]c3c(c2C1=O)CCC3O` (stereo not drawn) had an LC50 (concentration killing 50% of cells) in the assay on Breast carcinoma cell of 33.9 µM. Besides, the LC50 was 28.8 µM in the assay with CNS carcinoma cell, 14.1 µM in the assay on Melanoma cell and 89.1 µM with Ovarian carcinoma cell. In the assay with Colon carcinoma cell, this molecule gave an LC50 (50% lethal concentration) of 35.5 µM. This molecule had an LC50 (lethal concentration 50%) in [1] of 87.1 µM. The CC50 in the assay listed under Homo sapiens is 60.3 µM; in the assay on Prostatic carcinoma cell, 31.6 µM; in assay [2], 18.6 µM.

Regarding `CC1=C(N2CC2)C(=O)c2c([nH]c(CO)c2C)C1=O`, the LC50 (concentration killing 50% of cells) in the assay on Breast carcinoma cell was 27.5 µM. Further, the LC50 in the assay on CNS carcinoma cell was above 100 µM; in the assay with Melanoma cell, 4.07 µM; in the assay on Ovarian carcinoma cell, above 100 µM. Besides, the LC50 (50% lethal concentration) in the assay on Colon carcinoma cell is 47.9 µM. Further, in [1], the LC50 (lethal concentration 50%) is above 100 µM. For the same molecule, the CC50 in the assay listed under Homo sapiens was 42.7 µM; in the assay on Prostatic carcinoma cell it was 16.6 µM; in the assay with Renal cancer cell line, 29.5 µM.

The LC50 is the concentration that kills 50% of the test population.
